Legend:
Assay in all cases: relative viability (nuclei count vs DMSO), 5 days (fraction); higher = more cells survive
NCI-H2023 = tested on: NCI-H2023
In short: (§1)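 Relative viability was taken as the ratio of nuclei in treated wells to nuclei in vehicle wells. Lung cancer cell lines in 1536-well plates received compounds by pin tool one day after seeding, either one drug alone or a fixed anchor-drug dose plus five library-drug doses (not always all listed) in √10 steps. Nuclei were counted on 4× images after 5 days of treatment, and values are medians of duplicate plates.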

NCI-H647 = tested on: NCI-H647
In short: as §1

H3255 = tested on: H3255
In short: as §1

NCI-H2347 = tested on: NCI-H2347
In short: as §1

NCI-H2085 = tested on: NCI-H2085
In short: as §1

SK-LU-1 = tested on: SK-LU-1
In short: as §1

PC-14 = tested on: PC-14
In short: as §1

NCI-H727 = tested on: NCI-H727
In short: as §1

NCI-H2009 = tested on: NCI-H2009
In short: as §1

NCI-H1993 = tested on: NCI-H1993
In short: as §1

SW 1573 = tested on: SW 1573
In short: as §1

EMC-BAC-2 = tested on: EMC-BAC-2
In short: as §1

LXF-289 = tested on: LXF-289
In short: as §1

NCI-H2126 = tested on: NCI-H2126
In short: as §1

NCI-H322M = tested on: NCI-H322M
In short: as §1

HOP-62 = tested on: HOP-62
In short: as §1

LCLC-97TM1 = tested on: LCLC-97TM1
In short: as §1

NCI-H1915 = tested on: NCI-H1915
In short: as §1

EPLC-272H = tested on: EPLC-272H
In short: as §1

NCI-H1734 = tested on: NCI-H1734
In short: as §1

NCI-H661 = tested on: NCI-H661
In short: as §1

Work on `COc1cc2nccc(Oc3ccc(NC(=O)Nc4cc(C)on4)c(Cl)c3)c2cc1OC` [Tivozanib] + CC(=O)Nc1cccc(-n2c(=O)n(C3CC3)c(=O)c3c(Nc4ccc(I)cc4F)n(C)c(=O)c(C)c32)c1 [Trametinib] (partner 0.02 µM) yielded a relative viability (NCI-H2023; first compound 0.005 µM) of 0.526, a relative viability (NCI-H2023; first compound 0.01581 µM) of 0.603 and a relative viability (NCI-H2023; first compound 0.05 µM) of 0.606. It also gave a relative viability (NCI-H2023; first compound 0.1581 µM) of 0.61, a relative viability (NCI-H2023; first compound 0.5 µM) of 0.498 and a relative viability (NCI-H647; first compound 0.005 µM) of 0.521. It also gave a relative viability (NCI-H647; first compound 0.01581 µM) of 0.461, a relative viability (NCI-H647; first compound 0.05 µM) of 0.483 and a relative viability (NCI-H647; first compound 0.1581 µM) of 0.408. For the same molecule, the relative viability (NCI-H647; first compound 0.5 µM) was 0.49, the relative viability (H3255; first compound 0.005 µM) was 0.531 and the relative viability (H3255; first compound 0.01581 µM) was 0.61. For the same molecule, the relative viability (H3255; first compound 0.05 µM) was 0.659, the relative viability (H3255; first compound 0.1581 µM) was 0.608 and the relative viability (H3255; first compound 0.5 µM) was 0.59. It also gave a relative viability (NCI-H2347; first compound 0.005 µM) of 0.311, a relative viability (NCI-H2347; first compound 0.01581 µM) of 0.27 and a relative viability (NCI-H2347; first compound 0.05 µM) of 0.294. It also gave a relative viability (NCI-H2347; first compound 0.1581 µM) of 0.317, a relative viability (NCI-H2347; first compound 0.5 µM) of 0.284 and a relative viability (NCI-H2085; first compound 0.005 µM) of 0.51. It also gave a relative viability (NCI-H2085; first compound 0.01581 µM) of 0.602, a relative viability (NCI-H2085; first compound 0.05 µM) of 0.543 and a relative viability (NCI-H2085; first compound 0.1581 µM) of 0.437. For the same molecule, the relative viability (NCI-H2085; first compound 0.5 µM) was 0.511, the relative viability (SK-LU-1; first compound 0.005 µM) was 0.508 and the relative viability (SK-LU-1; first compound 0.01581 µM) was 0.498. For the same molecule, the relative viability (SK-LU-1; first compound 0.05 µM) was 0.594, the relative viability (SK-LU-1; first compound 0.1581 µM) was 0.3 and the relative viability (SK-LU-1; first compound 0.5 µM) was 0.503. The relative viability (PC-14; first compound 0.005 µM) was 0.654, the relative viability (PC-14; first compound 0.01581 µM) was 0.766 and the relative viability (PC-14; first compound 0.05 µM) was 0.844. It also gave a relative viability (PC-14; first compound 0.1581 µM) of 0.84, a relative viability (PC-14; first compound 0.5 µM) of 0.751 and a relative viability (NCI-H727; first compound 0.005 µM) of 0.385. The relative viability (NCI-H727; first compound 0.01581 µM) was 0.419, the relative viability (NCI-H727; first compound 0.05 µM) was 0.366 and the relative viability (NCI-H727; first compound 0.1581 µM) was 0.38. It also gave a relative viability (NCI-H727; first compound 0.5 µM) of 0.398, a relative viability (NCI-H2009; first compound 0.005 µM) of 0.269 and a relative viability (NCI-H2009; first compound 0.01581 µM) of 0.323. The relative viability (NCI-H2009; first compound 0.05 µM) was 0.295, the relative viability (NCI-H2009; first compound 0.1581 µM) was 0.204 and the relative viability (NCI-H2009; first compound 0.5 µM) was 0.339. For the same molecule, the relative viability (NCI-H1993; first compound 0.005 µM) was 0.562, the relative viability (NCI-H1993; first compound 0.01581 µM) was 0.354 and the relative viability (NCI-H1993; first compound 0.05 µM) was 0.625. The relative viability (NCI-H1993; first compound 0.1581 µM) was 0.63, the relative viability (NCI-H1993; first compound 0.5 µM) was 0.502 and the relative viability (SW 1573; first compound 0.005 µM) was 0.541. It also gave a relative viability (SW 1573; first compound 0.01581 µM) of 0.644, a relative viability (SW 1573; first compound 0.05 µM) of 0.464 and a relative viability (SW 1573; first compound 0.1581 µM) of 0.457. It also gave a relative viability (SW 1573; first compound 0.5 µM) of 0.416, a relative viability (EMC-BAC-2; first compound 0.005 µM) of 0.886 and a relative viability (EMC-BAC-2; first compound 0.01581 µM) of 0.844. For the same molecule, the relative viability (EMC-BAC-2; first compound 0.05 µM) was 0.905, the relative viability (EMC-BAC-2; first compound 0.1581 µM) was 0.827 and the relative viability (EMC-BAC-2; first compound 0.5 µM) was 0.952. The relative viability (LXF-289; first compound 0.005 µM) was 0.698, the relative viability (LXF-289; first compound 0.01581 µM) was 0.674 and the relative viability (LXF-289; first compound 0.05 µM) was 0.629. The relative viability (LXF-289; first compound 0.1581 µM) was 0.646, the relative viability (LXF-289; first compound 0.5 µM) was 0.668 and the relative viability (NCI-H2126; first compound 0.005 µM) was 0.595. The relative viability (NCI-H2126; first compound 0.01581 µM) was 0.556, the relative viability (NCI-H2126; first compound 0.05 µM) was 0.567 and the relative viability (NCI-H2126; first compound 0.1581 µM) was 0.444. The relative viability (NCI-H2126; first compound 0.5 µM) was 0.555, the relative viability (NCI-H322M; first compound 0.005 µM) was 0.509 and the relative viability (NCI-H322M; first compound 0.01581 µM) was 0.602. For the same molecule, the relative viability (NCI-H322M; first compound 0.05 µM) was 0.55, the relative viability (NCI-H322M; first compound 0.1581 µM) was 0.517 and the relative viability (NCI-H322M; first compound 0.5 µM) was 0.577. For the same molecule, the relative viability (HOP-62; first compound 0.005 µM) was 0.343, the relative viability (HOP-62; first compound 0.01581 µM) was 0.398 and the relative viability (HOP-62; first compound 0.05 µM) was 0.439. The relative viability (HOP-62; first compound 0.1581 µM) was 0.377, the relative viability (HOP-62; first compound 0.5 µM) was 0.502 and the relative viability (LCLC-97TM1; first compound 0.005 µM) was 0.15. For the same molecule, the relative viability (LCLC-97TM1; first compound 0.01581 µM) was 0.194, the relative viability (LCLC-97TM1; first compound 0.05 µM) was 0.206 and the relative viability (LCLC-97TM1; first compound 0.1581 µM) was 0.165. For the same molecule, the relative viability (LCLC-97TM1; first compound 0.5 µM) was 0.273, the relative viability (NCI-H1915; first compound 0.005 µM) was 0.318 and the relative viability (NCI-H1915; first compound 0.01581 µM) was 0.305. It also gave a relative viability (NCI-H1915; first compound 0.05 µM) of 0.3, a relative viability (NCI-H1915; first compound 0.1581 µM) of 0.273 and a relative viability (NCI-H1915; first compound 0.5 µM) of 0.304. It also gave a relative viability (EPLC-272H; first compound 0.005 µM) of 0.243, a relative viability (EPLC-272H; first compound 0.01581 µM) of 0.277 and a relative viability (EPLC-272H; first compound 0.05 µM) of 0.27. The relative viability (EPLC-272H; first compound 0.1581 µM) was 0.235, the relative viability (EPLC-272H; first compound 0.5 µM) was 0.246 and the relative viability (NCI-H1734; first compound 0.005 µM) was 0.645. It also gave a relative viability (NCI-H1734; first compound 0.01581 µM) of 0.642, a relative viability (NCI-H1734; first compound 0.05 µM) of 0.666 and a relative viability (NCI-H1734; first compound 0.1581 µM) of 0.479. For the same molecule, the relative viability (NCI-H1734; first compound 0.5 µM) was 0.638, the relative viability (NCI-H661; first compound 0.005 µM) was 0.588 and the relative viability (NCI-H661; first compound 0.01581 µM) was 0.562. It also gave a relative viability (NCI-H661; first compound 0.05 µM) of 0.618, a relative viability (NCI-H661; first compound 0.1581 µM) of 0.522 and a relative viability (NCI-H661; first compound 0.5 µM) of 0.641.

Source: the supplement of paper PMC10307832
